test system: MV4-11 cells; assay: Cell proliferation assay MV4;11 (CellTiter-Glo, 72 hours); format: cell-based; conditions: Homo sapiens; MV4;11 leukemia cell line, 72 hours; read-out: MV4; 11 IC50
Protocol: Compounds were evaluated for its capacity to inhibit the proliferation of the MLLr leukemia cell line MV4-11 that harbors an MLL1-AF4 fusion protein. MV4-11 cells were cultured for 72 hours with limiting dilutions of compounds and viability was measured using CellTiter-Glo.
Compounds were dissolved to obtain as 10 mM solution in DMSO. The stock was diluted 1:5 to the top concentration of 2 mM in 100% DMSO. For IC50 determination, serial 1:3.16 dilutions were prepared in 100% DMSO by diluting 20 μL into 43.5 μL of DMSO for 8 concentrations. Each prepared DMSO solution were further diluted 1:500 in the cell culture media to obtain the 2× dosing solutions. The final concentrations of tested compounds in the cell culture media ranged from 0.632 nM to 2000 nM.
MV4-11 cells were cultured in IMDM with 10% FBS and 1× Penicillin-Streptomycin at 5% CO2 and 37° C. A cell suspension was prepared containing 15,000 cells/ml in the culture medium and 100 μL of this suspension was added per well to a 96-well cell culture plate. Then, 100 μL of 2× dosing media containing test compounds were added bringing the total volume to 200 μL. These cells were cultured for 72 hours at 37° C. and 5% CO2 in a humidified incubator.
After 72 hours, the cultured cells were mixed and 100p L was transferred to a 96-well black plate. Cell Titer Glo (100 μl) was then added to this plate. The plate was mixed with shaking for 15 mins at RT, the luminescence was then measured using Tecan Spark 20M spectrophotometer. Cell Viability (%) was determined by RLU of test/RLU average vehicle control*100 and % max inhibition was determined by 100−(% cell viability remaining at the top concentration of compound).

Q: With `C[C@@H]1COC[C@H](C)N1C(=O)c1cc(F)ccc1Oc1cncnc1N1CC2(CCN(C[C@@H]3CC[C@@H](NS(C)(=O)=O)CO3)CC2)C1` [Example 23, N-((3R,6S)-6-((2-(5-(2-((3S,5R)-3,5-Dimethylmorpholine-4-carbonyl)-4-fluorophenoxy)pyrimidin-4-yl)-2,7-diazaspiro[3.5]nonan-7-yl)methyl)tetrahydro-2H-pyran-3-yl)methanesulfonamide] as the molecule, how does the IC50 read?
A: 100 to 1000 nM

Q: With `CCS(=O)(=O)N[C@@H]1CC[C@@H](CN2CCC3(CC2)CN(c2ncncc2Oc2ccc(F)cc2C(=O)N2[C@H](C)COC[C@@H]2C)C3)OC1` [Example 24, N-((3R,6S)-6-((2-(5-(2-((3S,5R)-3,5-dimethylmorpholine-4-carbonyl)-4-fluorophenoxy)pyrimidin-4-yl)-2,7-diazaspiro[3.5]nonan-7-yl)methyl)tetrahydro-2H-pyran-3-yl)ethanesulfonamide] as the molecule, how does the IC50 read?
A: < 100 nM

Q: Which IC50 does the source give for `CC(C)S(=O)(=O)N[C@@H]1CC[C@@H](CN2CCC3(CC2)CN(c2ncncc2Oc2ccc(F)cc2C(=O)N2[C@H](C)COC[C@@H]2C)C3)OC1` [Example 25, N-((3R,6S)-6-((2-(5-(2-((3S,5R)-3,5-Dimethylmorpholine-4-carbonyl)-4-fluorophenoxy)pyrimidin-4-yl)-2,7-diazaspiro[3.5]nonan-7-yl)methyl)tetrahydro-2H-pyran-3-yl)propane-2-sulfonamide] here?
A: < 100 nM

Q: How did the IC50 turn out when `C[C@@H]1COC[C@H](C)N1C(=O)c1cc(F)ccc1Oc1cncnc1N1CC2(CCN(C[C@@H]3CC[C@@H](NS(=O)(=O)C4CC4)CO3)CC2)C1` [Example 26, N-((3R,6S)-6-((2-(5-(2-((3S,5R)-3,5-Dimethylmorpholine-4-carbonyl)-4-fluorophenoxy)pyrimidin-4-yl)-2,7-diazaspiro[3.5]nonan-7-yl)methyl)tetrahydro-2H-pyran-3-yl)cyclopropanesulfonamide] was run?
A: < 100 nM

Q: How did the IC50 turn out when `C[C@@H]1COC[C@H](C)N1C(=O)c1cc(F)ccc1Oc1cncnc1N1CC2(CCN(C[C@@H]3CC[C@@H](NS(=O)(=O)C4COC4)CO3)CC2)C1` [Example 27, N-((3R,6S)-6-((2-(5-(2-((3S,5R)-3,5-Dimethylmorpholine-4-carbonyl)-4-fluorophenoxy)pyrimidin-4-yl)-2,7-diazaspiro[3.5]nonan-7-yl)methyl)tetrahydro-2H-pyran-3-yl)oxetane-3-sulfonamide] was run?
A: 100 to 1000 nM

Q: How did the IC50 turn out when `C[C@@H]1COC[C@@H](C)N1C(=O)c1cc(F)ccc1Oc1cncnc1N1CC2(CCN(C[C@@H]3CC[C@@H](NS(C)(=O)=O)CO3)CC2)C1` [Example 28, N-((3R,6S)-6-((2-(5-(2-((3R,5R)-3,5-Dimethylmorpholine-4-carbonyl)-4-fluorophenoxy)pyrimidin-4-yl)-2,7-diazaspiro[3.5]nonan-7-yl)methyl)tetrahydro-2H-pyran-3-yl)methanesulfonamide] was run?
A: 100 to 1000 nM

Q: With `CCS(=O)(=O)N[C@@H]1CC[C@@H](CN2CCC3(CC2)CN(c2ncncc2Oc2ccc(F)cc2C(=O)N2[C@H](C)COC[C@H]2C)C3)OC1` [Example 29, N-((3R,6S)-6-((2-(5-(2-((3R,5R)-3,5-Dimethylmorpholine-4-carbonyl)-4-fluorophenoxy)pyrimidin-4-yl)-2,7-diazaspiro[3.5]nonan-7-yl)methyl)tetrahydro-2H-pyran-3-yl)ethanesulfonamide] as the molecule, how does the IC50 read?
A: < 100 nM

Q: `CC(C)S(=O)(=O)N[C@@H]1CC[C@@H](CN2CCC3(CC2)CN(c2ncncc2Oc2ccc(F)cc2C(=O)N2[C@H](C)COC[C@H]2C)C3)OC1` [Example 30, N-((3R,6S)-6-((2-(5-(2-((3R,5R)-3,5-Dimethylmorpholine-4-carbonyl)-4-fluorophenoxy)pyrimidin-4-yl)-2,7-diazaspiro[3.5]nonan-7-yl)methyl)tetrahydro-2H-pyran-3-yl)propane-2-sulfonamide] was tested. Which IC50 did it give?
A: < 100 nM

Q: Which IC50 does the source give for `C[C@@H]1COC[C@@H](C)N1C(=O)c1cc(F)ccc1Oc1cncnc1N1CC2(CCN(C[C@@H]3CC[C@@H](NS(=O)(=O)C4CC4)CO3)CC2)C1` [Example 31, N-((3R,6S)-6-((2-(5-(2-((3R,5R)-3,5-dimethylmorpholine-4-carbonyl)-4-fluorophenoxy)pyrimidin-4-yl)-2,7-diazaspiro[3.5]nonan-7-yl)methyl)tetrahydro-2H-pyran-3-yl)cyclopropanesulfonamide] here?
A: < 100 nM

Q: How did the IC50 turn out when `C[C@@H]1COC[C@@H](C)N1C(=O)c1cc(F)ccc1Oc1cncnc1N1CC2(CCN(C[C@@H]3CC[C@@H](NS(=O)(=O)C4COC4)CO3)CC2)C1` [Example 32, N-((3R,6S)-6-((2-(5-(2-((3R,5R)-3,5-Dimethylmorpholine-4-carbonyl)-4-fluorophenoxy)pyrimidin-4-yl)-2,7-diazaspiro[3.5]nonan-7-yl)methyl)tetrahydro-2H-pyran-3-yl)oxetane-3-sulfonamide] was run?
A: 100 to 1000 nM

Q: For `CCS(=O)(=O)N[C@@H]1CC[C@@H](CN2CCC3(CC2)CN(c2ncncc2Oc2ccc(F)cc2C(=O)N(C(C)C)[C@H]2CCOC2)C3)OC1` [Example 33, 2-((4-(7-(((2S,5R)-5-(Ethylsulfonamido)tetrahydro-2H-pyran-2-yl)methyl)-2,7-diazaspiro[3.5]nonan-2-yl)pyrimidin-5-yl)oxy)-5-fluoro-N-isopropyl-N-((S)-tetrahydrofuran-3-yl)benzamide], which IC50 is on record?
A: < 100 nM

Q: Which IC50 does the source give for `CCS(=O)(=O)N[C@@H]1CC[C@@H](CN2CCC3(CC2)CN(c2ncncc2Oc2ccc(F)cc2C(=O)N(CC(F)F)C(C)C)C3)OC1` [Example 34, N-(2,2-Difluoroethyl)-2-((4-(7-(((2S,5R)-5-(ethylsulfonamido)tetrahydro-2H-pyran-2-yl)methyl)-2,7-diazaspiro[3.5]nonan-2-yl)pyrimidin-5-yl)oxy)-5-fluoro-N-isopropylbenzamide] here?
A: < 100 nM

Q: For `CCS(=O)(=O)N[C@@H]1CC[C@@H](CN2CCC3(CC2)CN(c2ncncc2Oc2ccc(F)cc2C(=O)N(CCOC)C(C)C)C3)OC1` [Example 35, 2-((4-(7-(((2S,5R)-5-(Ethylsulfonamido)tetrahydro-2H-pyran-2-yl)methyl)-2,7-diazaspiro[3.5]nonan-2-yl)pyrimidin-5-yl)oxy)-5-fluoro-N-isopropyl-N-(2-methoxyethyl)benzamide], which IC50 is on record?
A: < 100 nM

Q: `CCS(=O)(=O)N[C@@H]1CC[C@@H](CN2CCC3(CC2)CN(c2ncncc2Oc2ccc(F)cc2C(=O)N2[C@H](C)CCC[C@@H]2C)C3)OC1` [Example 36, N-((3R,6S)-6-((2-(5-(2-((2S,6R)-2,6-Dimethylpiperidine-1-carbonyl)-4-fluorophenoxy)pyrimidin-4-yl)-2,7-diazaspiro[3.5]nonan-7-yl)methyl)tetrahydro-2H-pyran-3-yl)ethanesulfonamide] was tested. Which IC50 did it give?
A: < 100 nM

Q: How did the IC50 turn out when `CCN(C(=O)c1cc(F)ccc1Oc1cncnc1N1CC2(CCN(C[C@@H]3CC[C@@H](NC(=O)NCC(F)(F)F)CO3)CC2)C1)C(C)C` [Example 37, N-Ethyl-5-fluoro-N-isopropyl-2-((4-(7-(((2S,5R)-5-(3-(2,2,2-trifluoroethyl)ureido)tetrahydro-2H-pyran-2-yl)methyl)-2,7-diazaspiro[3.5]nonan-2-yl)pyrimidin-5-yl)oxy)benzamide] was run?
A: < 100 nM

Q: For `CCCNC(=O)N[C@@H]1CC[C@@H](CN2CCC3(CC2)CN(c2ncncc2Oc2ccc(F)cc2C(=O)N(CC)C(C)C)C3)OC1` [Example 38, N-Ethyl-5-fluoro-N-isopropyl-2-((4-(7-(((2S,5R)-5-(3-propylureido)tetrahydro-2H-pyran-2-yl)methyl)-2,7-diazaspiro[3.5]nonan-2-yl)pyrimidin-5-yl)oxy)benzamide], which IC50 is on record?
A: 100 to 1000 nM

Q: Which IC50 does the source give for `CCNC(=O)N[C@@H]1CC[C@@H](CN2CCC3(CC2)CN(c2ncncc2Oc2ccc(F)cc2C(=O)N(CC)C(C)C)C3)OC1` [Example 39, N-Ethyl-2-((4-(7-(((2S,5R)-5-(3-ethylureido)tetrahydro-2H-pyran-2-yl)methyl)-2,7-diazaspiro[3.5]nonan-2-yl)pyrimidin-5-yl)oxy)-5-fluoro-N-isopropylbenzamide] here?
A: < 100 nM

Q: `C[C@H]1COCCN1C(=O)c1cc(F)ccc1Oc1cncnc1N1CC2(CCN(C[C@@H]3CC[C@@H](NS(=O)(=O)C4CC4)CO3)CC2)C1` [Example 40, N-((3R,6S)-6-((2-(5-(4-Fluoro-2-((S)-3-methylmorpholine-4-carbonyl)phenoxy)pyrimidin-4-yl)-2,7-diazaspiro[3.5]nonan-7-yl)methyl)tetrahydro-2H-pyran-3-yl)cyclopropanesulfonamide] was tested. Which IC50 did it give?
A: 100 to 1000 nM

Q: For `CCN(C(=O)c1cc(F)ccc1Oc1cncnc1N1CC2(CCN(C[C@@H]3CC[C@@H](NC(=O)NCC(F)F)CO3)CC2)C1)C(C)C` [Example 41, 2-((4-(7-(((2S,5R)-5-(3-(2,2-Difluoroethyl)ureido)tetrahydro-2H-pyran-2-yl)methyl)-2,7-diazaspiro[3.5]nonan-2-yl)pyrimidin-5-yl)oxy)-N-ethyl-5-fluoro-N-isopropylbenzamide], which IC50 is on record?
A: 100 to 1000 nM

Q: For `CCN(C(=O)c1cc(F)ccc1Oc1cncnc1N1CC2(CCN(C[C@@H]3CC[C@@H](NC(=O)NCC4CC4)CO3)CC2)C1)C(C)C` [Example 42, 2-((4-(7-(((2S,5R)-5-(3-(Cyclopropylmethyl)ureido)tetrahydro-2H-pyran-2-yl)methyl)-2,7-diazaspiro[3.5]nonan-2-yl)pyrimidin-5-yl)oxy)-N-ethyl-5-fluoro-N-isopropylbenzamide], which IC50 is on record?
A: 100 to 1000 nM
